# Assay results as given in US11466044B2 (WAYNE STATE UNIVERSITY, priority 2017, dated 2022).
# Where two headings read alike, the source gives them in different places.
# Legend:
# E coli wild type = test: MIC by broth microdilution, wild type E coli; type: cell-based; details: for MIC: Escherichia coli; for MIC50 E coli BM13 (AG06) wt: Table 2A (Example 2); for MIC WT: Table 3 (Example 2); for MIC50 E coli pH430 WT: Table 2B (Example 2); for MIC50 E coli AG01: strain AG01; for MIC50 E coli AG01 / MIC50 E coli AG03 / MIC50 E coli AG55: Table 1 (Example 2); for MIC50 E coli AG03: strain AG03; for MIC50 E coli AG55: strain AG55
# P aeruginosa = test: MIC by broth microdilution, P aeruginosa isolates; type: cell-based, Pseudomonas aeruginosa; details: for MIC: strain AG220 Pseudomonas aeruginosa ATCC27853, read-out: MIC AG220 P. aerugin; for MIC50 P aeruginosa AG31: strain AG31; for MIC50 P aeruginosa AG32: strain AG32; for MIC50: Pseudomonas aeruginosa
# [1] = system: Klebsiella pneumonia AG215; test: MIC by broth microdilution, Klebsiella pneumonia; type: cell-based; details: Klebsiella pneumoniae; strain AG215 Klebsiella pneumonia; read-out: MIC AG215 K. pneumon
# [2] = system: Acinetobacter baumannii pittii AG225; test: MIC by broth microdilution, Acinetobacter baumannii; type: cell-based; details: strain AG225 Acinetobacter baumannii pittii
# [3] = system: Enterobacter cloacae AG290; test: MIC by broth microdilution, Enterobacter cloacae; type: cell-based; details: strain AG290 Enterobacter cloacae; read-out: MIC AG290 E. cloacae
# [4] = system: E coli carrying specific resistance determinants; test: MIC by broth microdilution, E coli carrying specific resistance determinants; type: cell-based; details: for MIC: Escherichia coli
# M. abscessus = test: MIC by broth microdilution, M. abscessus; type: cell-based; details: for MIC: Mycobacteroides abscessus
# M. smegmatis SZ380 = test: MIC by broth microdilution, M. smegmatis; details: for MIC SZ380 M. smegmatis: strain SZ380 Mycobacterium smegmatis
# MRSA = test: MIC by broth microdilution, MRSA isolates; type: cell-based; details: Table 1 (Example 2); for MIC50 MRSA AG38: strain AG38; for MIC50 MRSA AG39: strain AG39; for MIC50 MRSA AG44: strain AG44
# [5] = system: wild type bacterial ribosomes; test: in-vitro translation assay, bacterial ribosomes; type: biochemical; details: bacterial ribosome; Table 3 (Example 2); read-out: IC50 Bac
# Source text: (§1) The antiribosomal activity of these compounds was investigated with cell-free translation assays using both wild type bacterial ribosomes and hybrid ribosomes carrying eukaryotic decoding A sites enabling the prediction of selectivity.
# [6] = system: cytosolic ribosome (human chimeric); type: biochemical; details: cytosolic; Table 3 (Example 2); read-out: IC50 Cyt
# Source text: as §1
# [7] = system: mitochondrial ribosome (human chimeric); type: biochemical; details: mitochondrial; Table 3 (Example 2); read-out: IC50 Mit
# Source text: as §1
# [8] = ATCC25922, strain AG212 E. coli (ATCC25922), read-out: MIC AG212 E. coli
smiles,measurement,setting,value
CCC(O)C1O[C@H](O[C@@H]2C(N)C[C@@H](N)C(O)[C@H]2O[C@@H]2O[C@H](CO)[C@H](O[C@H]3O[C@@H](CN)[C@@H](O)C(O)C3N)C2O)C(N)[C@@H](O)[C@@H]1O (stereo partly drawn) [Compound 192],MIC,E coli wild type; [8],4 µg/mL
same,MIC,P aeruginosa,> 64 µg/mL
same,MIC,[1],2 µg/mL
same,MIC,[2],8 µg/mL
same,MIC,[3],2 to 4 µg/mL
CCC[C@H]1C[C@H](N)[C@@H](O[C@@H]2C(N)C[C@@H](N)C(O)[C@H]2O[C@@H]2O[C@H](CNC=O)[C@H](O[C@H]3OC(CN)[C@@H](O)C(O)C3N)C2O)OC1CO (stereo partly drawn) [Compound 190],MIC,E coli wild type; [8],16 µg/mL
same,MIC,P aeruginosa,> 64 µg/mL
same,MIC,[1],32 µg/mL
same,MIC,[2],> 64 µg/mL
same,MIC,[3],16 to 32 µg/mL
"CN[C@@H]1[C@@H](O)[C@@H](O[C@@H]2[C@@H](O)[C@H](O[C@H]3OC(CNCCO)=CC[C@H]3N)[C@@H](N)C[C@H]2NC(=O)[C@@H](O)CCN)OC[C@]1(C)O [PLZ, plazomicin, reference compound]",MIC,"E coli wild type; WT, Table 5 (Example 3), read-out: MIC E. coli WT",0.5 to 1 µg/mL
same,MIC,[4]; read-out: MIC E. coli AG106 AAC(2′)-Ia,8 to 16 µg/mL
same,MIC,[4]; read-out: MIC E. coli pGB2armA armA,> 128 µg/mL
same,MIC,[4]; read-out: MIC E. coli pH434 AAC(2′)-Ib,8 µg/mL
same,MIC,"M. abscessus; ATCC19977, ATCC 19977 WT, Table 5 (Example 3), read-out: MIC M. abscessus ATCC 19977 WT",1 µg/mL
same,MIC,M. abscessus; read-out: MIC M. abscessus clinical isolate,4 µg/mL
same,MIC,M. abscessus; read-out: MIC M. abscessus engineered Δeis2,1 µg/mL
same,MIC,"M. smegmatis SZ380; Mycolicibacterium smegmatis, SZ380, read-out: MIC M. smegmatis SZ380 WT, SZ380 WT, Table 5 (Example 3)",0.25 µg/mL
"CC1CC(N)C2O[C@H](O[C@@H]3C(N)C[C@@H](N)C(O)[C@H]3O[C@@H]3O[C@H](CO)[C@H](O[C@H]4O[C@@H](CN)[C@@H](O)C(O)C4N)C3O)C(N)[C@@H](O)[C@@H]2O1 (stereo partly drawn) [Compound 150, 4-O-(2′,6′-Diamino-4′,8′-anhydro-2′,6′,7′,9′-tetradeoxy-D-erythro-α-D-gluco-nonapyranosyl)-5-O-(β-paramobiosyl)-2-deoxystreptamine.6AcOH]",MIC50 MRSA AG38,MRSA,128 µg/mL
same,MIC50 MRSA AG39,MRSA,128 µg/mL
same,MIC50 MRSA AG42,MRSA; strain AG42,128 µg/mL
same,MIC50 MRSA AG44,MRSA,128 µg/mL
same,MIC50 E coli BM13 (AG06) wt,E coli wild type,64 to 128 µg/mL
same,MIC WT,E coli wild type; WT,64 to 128 µg/mL
same,MIC50 E coli pH430 WT,E coli wild type,64-128 μg/ml
same,MIC50 E coli AG01,E coli wild type,>128 µg/mL
same,MIC50 E coli AG03,E coli wild type,>128 µg/mL
same,MIC50 E coli AG55,E coli wild type,>128 µg/mL
same,MIC50 P aeruginosa AG31,P aeruginosa; Table 1 (Example 2),>128 µg/mL
same,MIC50 P aeruginosa AG32,P aeruginosa; Table 1 (Example 2),>128 µg/mL
same,MIC50 P aeruginosa AG33,"P aeruginosa; strain AG33, Table 1 (Example 2)",>128 µg/mL
same,MIC50 P aeruginosa AG86,"P aeruginosa; strain AG86, Table 1 (Example 2)",>128 µg/mL
same,IC50,[5],0.48 µM
same,IC50,[6],12 µM
same,IC50,[7],4.1 µM
same,MIC SZ380 M. smegmatis,M. smegmatis SZ380,16 to 32 µg/mL
"NCC[C@H](O)C(=O)N[C@@H]1C[C@H](N)[C@@H](O[C@H]2O[C@H](CN)[C@@H](O)[C@H](O)[C@H]2O)[C@H](O)[C@H]1O[C@H]1O[C@H](CO)[C@@H](O)[C@H](N)[C@H]1O [AMK, reference compound]",MIC E. coli WT,"E coli wild type; WT, Table 5 (Example 3)",2 µg/mL
same,MIC E. coli AG106 AAC(2′)-Ia,"[4]; AG106 AAC(2′)-Ia, Table 5 (Example 3)",2 µg/mL
same,MIC E. coli pGB2armA armA,"[4]; pGB2armA armA, Table 5 (Example 3)",>128 μg/ml
same,MIC E. coli pH434 AAC(2′)-Ib,"[4]; pH434 AAC(2′)-Ib, Table 5 (Example 3)",2 μg/ml
same,MIC M. abscessus ATCC 19977 WT,"M. abscessus; ATCC 19977 WT, Table 5 (Example 3)",1 µg/mL
same,MIC M. abscessus clinical isolate,"M. abscessus; clinical isolate, Table 5 (Example 3)",2 µg/mL
same,MIC M. abscessus engineered Δeis2,"M. abscessus; engineered Δeis2, Table 5 (Example 3)",0.125 to 0.25 µg/mL
same,MIC M. smegmatis SZ380 WT,M. smegmatis SZ380; Table 5 (Example 3),0.5 µg/mL
NC[C@@H]1O[C@H](O[C@@H]2C(O)[C@H](O[C@@H]3C(O)[C@H](N)CC(N)[C@H]3O[C@H]3OC4C(O)CCCO[C@H]4[C@H](O)C3N)O[C@@H]2CO)C(N)C(O)[C@@H]1O (stereo partly drawn) [Compound 199],MIC,E coli wild type; [8],> 32 µg/mL
same,MIC,P aeruginosa,> 32 µg/mL
same,MIC,[1],32 µg/mL
same,MIC,[2],> 32 µg/mL
same,MIC,[3],> 32 µg/mL
"CC1CC(O)C2O[C@H](O[C@@H]3C(N)C[C@@H](N)C(O)[C@H]3O[C@@H]3O[C@H](CO)[C@H](O[C@H]4O[C@@H](CN)[C@@H](O)C(O)C4N)C3O)C(N)[C@@H](O)[C@@H]2O1 (stereo partly drawn) [Compound 109, 4-O-(2′-Amino-4′,8′-anhydro-2′,7′,9′-trideoxy-D-erythro-α-D-gluco-nonapyranosyl)-5-O-[3-O-(2,6-diamino-2,6-dideoxy-β-L-idopyranosyl)-β-D-ribofuranosyl]-2-deoxystreptamine.5AcOH]",MIC50,"MRSA; Staphylococcus aureus, MRSA, strain AG42, read-out: MIC50 MRSA AG42",16 to 32 µg/mL
same,MIC50 MRSA AG38,MRSA,32 µg/mL
same,MIC50 MRSA AG39,MRSA,32 to 64 µg/mL
same,MIC50 MRSA AG44,MRSA,32 µg/mL
same,MIC50 E coli BM13 (AG06) wt,E coli wild type,16 to 32 µg/mL
same,MIC WT,E coli wild type; WT,16 to 32 µg/mL
same,MIC50 E coli pH430 WT,E coli wild type,16-32 μg/ml
same,MIC50 E coli AG01,E coli wild type,128 µg/mL
same,MIC50 E coli AG03,E coli wild type,64 to 128 µg/mL
same,MIC50 E coli AG55,E coli wild type,64 to 128 µg/mL
same,MIC50,"P aeruginosa; strain AG33, Table 1 (Example 2), read-out: MIC50 P aeruginosa AG33",> 128 µg/mL
same,MIC50,"P aeruginosa; strain AG86, Table 1 (Example 2), read-out: MIC50 P aeruginosa AG86",> 128 µg/mL
same,MIC50 P aeruginosa AG31,P aeruginosa; Table 1 (Example 2),>128 µg/mL
same,MIC50 P aeruginosa AG32,P aeruginosa; Table 1 (Example 2),>128 µg/mL
same,IC50,[5],0.47 µM
same,IC50,[6],169 µM
same,IC50,[7],193 µM
same,MIC SZ380 M. smegmatis,M. smegmatis SZ380,16 µg/mL
"CC(=O)O.NCC1OC(OC2C(CO)OC(OC3C(O)C(N)CC(N)C3OC3OC(CO)C(O)C(O)C3O)C2O)C(N)C(O)C1O (stereo not drawn) [Compound 118, 2′-Deamino-2′-hydroxy-paromomycin acetate salt]",MIC E. coli WT,"E coli wild type; WT, Table 5 (Example 3)",32 µg/mL
same,MIC M. smegmatis SZ380 WT,M. smegmatis SZ380; Table 5 (Example 3),>128 µg/mL
